In patent publication US12029712B2 (Sun Pharmaceutical Industries, Inc., priority 2017, dated 2024):

How the values were obtained:
[1] = target: T1, human NMDAR subunits GluN1 and GluN2A (Homo sapiens, UniProt Q05586); assay: NMDA receptor activation in automated patch clamp system (ScreenPatch); assay type: cell-based; conditions: HEK293 cells, 0.003 to 10 μM
T1 construct: expressed in transfected cells; host or cells: HEK293
Protocol: Peak current and steady state current were measured. The activity at the NMDA receptor was indistinguishable for the two compounds.

[2] = Pharmacokinetics of deuterated and non-deuterated D-serine, PO 10 mg/kg; assay type: in vivo, male Sprague Dawley rats
Protocol: Three rats were used for each group. Blood was collected at the following time points: for IV dosing: pre-dose, 0.05, 0.167, 0.5, 1, 2, 4, 6, 8 and 12 hours post-dose; for PO dosing: pre-dose, 0.25, 0.5, 1, 2, 4, 6, 8 and 12 hours post-dose PO. Urine was collected at pre-dose (minimum 12 hours), 0-6, 6-12 and 12-24 hours. Plasma samples were analyzed and quantified for dosed compound LC-MS/MS.

[3] = Brain distribution of Compound 100 24 hours after a single 100 mg/kg PO dose; assay type: in vivo, male Sprague-Dawley rats
Protocol: The distribution profile of Compound 100 was investigated in male Sprague-Dawley rats. […] At 24 hours after dosing, tissues from perfused brain and plasma were collected and analyzed by LC-MS.

rats = assay: Nephrotoxicity comparison at doses from 150 mg/kg to 750 mg/kg (dose escalation); assay type: in vivo; conditions: for BUN / creatinine: doses from 150 mg/kg to 750 mg/kg, PO
[4] = Pharmacokinetic profile of Compound 100 versus non-deuterated D-serine, 150 mg/kg PO; assay type: in vivo, male Sprague-Dawley rats
Description: (§1) The pharmacokinetic profile of Compound 100 was investigated in male Sprague-Dawley rats compared with that of non-deuterated D-serine. […] Plasma was collected and analyzed for Compound 100 and non-deuterated D-Serine. Additional blood was collected and analyzed for the full clinical chemistry profile.

Male Sprague-Dawley Rats [5] = assay: Nephrotoxicity dose response of non-deuterated D-serine, 30 to 300 mg/kg PO; assay type: in vivo; conditions: 24 hr samples, 150 and 300 mg/kg doses, versus control and reference values
Description: The pharmacokinetic profile of non-deuterated D-serine was investigated in male Sprague-Dawley rats. […] Plasma was collected and analyzed for the non-deuterated D-serine. Additional blood was collected and analyzed for the full clinical chemistry profile.

Male Sprague-Dawley Rats [6] = assay: Nephrotoxicity of Compound 100 and non-deuterated D-serine, 150 mg/kg PO (BUN, creatinine, GGT); assay type: in vivo
Description: as §1

[7] = dose escalation 150 mg/kg to 750 mg/kg

| activity at the NMDA receptor (peak current and steady state current) [1] | Tmax compared with non-deuterated D-serine [2] | concentration in the cortex compared with plasma or other brain locations [3] | Cmax and AUCinf compared with non-deuterated D-serine [4] | course of concentration in hippocampus ([4]; at 24 hr) | course of concentrations in plasma and cortex ([4]; within 24 hr) | Structure (SMILES) | exposure as measured by AUC and Cmax, compared with non-deuterated D-serine (rats; [7]) | gross signs of nephrotoxicity (rats; [7]) | BUN (rats) | creatinine (rats) | creatine level (Male Sprague-Dawley Rats [5]) | gamma glutamyl transferase (GGT) level (Male Sprague-Dawley Rats [5]) | urea nitrogen level (Male Sprague-Dawley Rats [5]) | blood urea nitrogen (BUN) level (Male Sprague-Dawley Rats [6]; 8 hr and 24 hr serum samples) | creatinine level (Male Sprague-Dawley Rats [6]; 24 hr serum samples) | gamma glutamyl transferase (GGT) level (Male Sprague-Dawley Rats [6]; 24 hr serum samples) |
| --- | --- | --- | --- | --- | --- | --- | --- | --- | --- | --- | --- | --- | --- | --- | --- | --- |
| indistinguishable | similar | greater | similar | remained steady | decreased | [2H][C@@](N)(CO)C(=O)O [Compound 100, (2R)-2-amino-2-deutero-3-hydroxy-propanoic acid] | greater | not Compound 100 | minimal changes | minimal changes |  |  |  |  |  |  |
| indistinguishable |  |  |  |  |  | N[C@H](CO)C(=O)O [Non-deuterated D-Serine, D-serine] |  | only observed in rats receiving non-deuterated D-serine | increasingly elevated levels | increasingly elevated levels | Elevated | Elevated | Elevated | Elevated | Elevated | Elevated |
